# Active and inactive are the calls of the source. The rule behind the calls is not given here.
# How the values were obtained:
# Oryctolagus cuniculus [1] = species on record: Oryctolagus cuniculus; experiment: Binding affinity to rabbit anti-bee venom immunoglobulin G antibody at 5 ug/ml using p-nitrophenyl-phosphate substrate after 15 mins by ELISA
# Oryctolagus cuniculus [2] = species on record: Oryctolagus cuniculus; experiment: Binding affinity to rabbit anti-HRP immunoglobulin G antibody at 5 ug/ml using p-nitrophenyl-phosphate substrate after 15 mins by ELISA
# Homo sapiens = species on record: Homo sapiens; experiment: Binding affinity to human anti-bromelain immunoglobulin E in multiple pollen sensitised patient serum using after 30 mins by ELISA
SMILES,Activity (Oryctolagus cuniculus [1]),Activity (Oryctolagus cuniculus [2]),Activity (Homo sapiens)
CC(=O)N[C@H]1[C@H](O[C@H]2[C@H](O[C@@H]3O[C@@H](C)[C@@H](O)[C@@H](O)[C@@H]3O)[C@@H](NC(C)=O)[C@H](OCCCCCC(=O)NCCCCCCNC(=O)CCCC[C@H]3[C@H]4NC(=O)N[C@H]4CS3(=O)=O)O[C@@H]2CO[C@H]2O[C@H](C)[C@H](O)[C@H](O)[C@H]2O)O[C@H](CO)[C@@H](O)[C@@H]1O,inactive,Active,Active
O=C(CCCCCO[C@@H]1O[C@H](CO[C@H]2O[C@H](CO)[C@@H](O)[C@H](O)[C@@H]2O)[C@@H](O)[C@H](O[C@@H]2O[C@@H](CO)[C@H](O)[C@@H](O)[C@H]2O)[C@@H]1O[C@@H]1OC[C@@H](O)[C@H](O)[C@H]1O)NCCCCCCNC(=O)CCCC[C@@H]1SC[C@@H]2NC(=O)N[C@@H]21,,Active,Active
O=C(CCCCCO[C@@H]1O[C@H](CO[C@H]2O[C@H](CO)[C@@H](O)[C@H](O)[C@@H]2O)[C@@H](O)[C@H](O)[C@@H]1O[C@@H]1OC[C@@H](O)[C@H](O)[C@H]1O)NCCCCCCNC(=O)CCCC[C@@H]1SC[C@@H]2NC(=O)N[C@@H]21,,Active,
CC(=O)N[C@H]1[C@H](O[C@H]2[C@H](O[C@@H]3O[C@@H](C)[C@@H](O)[C@@H](O)[C@@H]3O)[C@@H](NC(C)=O)[C@H](OCCCCCC(=O)NCCCCCCNC(=O)CCCC[C@H]3[C@H]4NC(=O)N[C@H]4CS3(=O)=O)O[C@@H]2CO)O[C@H](CO)[C@@H](O)[C@@H]1O,,Active,Active

# Source: ChEMBL document CHEMBL1667825, “Synthesis of cross-reactive carbohydrate determinants fragments as tools for in vitro allergy diagnosis” (Bioorg Med Chem, 2011)
